Experiment [1] addresses GLP-1R (Homo sapiens, UniProt P43220). As to the kind of experiment: HitHunter cAMP assay (GLP-1R). In kind it is cell-based. Conditions: cAMP; for Emax: read-out: (Emax) GLP-1R. In outline:
(§1)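 cAMP accumulation read by luminescent HitHunter immunocompetition after 30 min room-temperature agonist stimulation. Agonists tested as 22-point twofold dilutions, in duplicate, on 10,000 cells/well in HBSS containing 625 μM IBMX, 10 mM HEPES and 0.2% BSA.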

Experiment [2] concerns the target T1, GIP-R (Homo sapiens, UniProt P48546).
T1 sequence (P48546 22-466): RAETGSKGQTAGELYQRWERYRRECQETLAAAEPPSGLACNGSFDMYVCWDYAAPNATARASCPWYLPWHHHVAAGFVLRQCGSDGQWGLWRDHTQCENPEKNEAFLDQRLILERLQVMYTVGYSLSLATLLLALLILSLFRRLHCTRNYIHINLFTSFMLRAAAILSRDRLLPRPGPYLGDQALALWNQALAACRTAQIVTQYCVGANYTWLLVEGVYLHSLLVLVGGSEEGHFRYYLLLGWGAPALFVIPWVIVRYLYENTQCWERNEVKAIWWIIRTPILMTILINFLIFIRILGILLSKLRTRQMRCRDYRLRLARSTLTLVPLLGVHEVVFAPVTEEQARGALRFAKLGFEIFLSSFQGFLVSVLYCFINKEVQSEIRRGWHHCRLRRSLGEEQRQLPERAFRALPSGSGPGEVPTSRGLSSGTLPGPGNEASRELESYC
As to the kind of experiment: HitHunter cAMP assay (GIP-R). The settings on record: cAMP; for Emax: read-out: (Emax) GIP-R. In kind it is cell-based. Put shortly:
as §1
For orientation: cAMP levels reflect the balance of adenylyl cyclase and phosphodiesterase activity.

Where [3] appears, read: Table 3A, read-out: EC50 GLP-1R/nM.
Where [4] appears, read: Table 3A, read-out: EC50 GIP-R/nM.

Molecules are shown by their SMILES. Like-named read-outs stand apart in the source and are kept apart here. Numbered stars: 1 amine (or outer) side, 2 acyl side, 3 side chain; on linkers, the order of the positions; unused ones are H or OH. Square brackets hold non-standard residues; d marks the D form. Side chains are listed from the residue outwards. Peptide text beside a SMILES is read from it. * marks the point of attachment. X8 = O=C([C@@H](Cc1nn[nH]n1)N[*:1])[*:2]; γGlu = O=C(O)[C@H](CCC(=O)[*:2])N[*:1]; Palmitoyl = CCCCCCCCCCCCCCCC(=O)*; X6 = O=C(CSCC(=O)*)NCCN1CCCCC1=O; Aib = CC(C)(N)C(=O)O Some results are limits rather than exact numbers.

GLP-1R, sequence (P43220 24-463): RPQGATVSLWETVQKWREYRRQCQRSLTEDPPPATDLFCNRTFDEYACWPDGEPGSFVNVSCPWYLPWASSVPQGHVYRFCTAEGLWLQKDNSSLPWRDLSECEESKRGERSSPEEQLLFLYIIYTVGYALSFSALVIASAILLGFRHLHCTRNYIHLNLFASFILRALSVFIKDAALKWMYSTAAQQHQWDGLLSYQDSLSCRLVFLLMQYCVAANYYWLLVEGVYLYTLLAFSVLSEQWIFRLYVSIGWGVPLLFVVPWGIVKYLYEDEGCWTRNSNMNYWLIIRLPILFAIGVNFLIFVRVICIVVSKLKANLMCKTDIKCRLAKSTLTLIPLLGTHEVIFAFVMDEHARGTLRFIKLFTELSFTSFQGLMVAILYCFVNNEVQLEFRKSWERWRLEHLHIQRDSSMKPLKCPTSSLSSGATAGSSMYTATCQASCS

Broadly, the Emax is the maximal effect, on the per cent scale that the assay sets. On to `CCCCCCCCCCCCCCCC(=O)N[C@@H](CCC(=O)NCCCC[C@H](NC(=O)[C@H](CO)NC(=O)[C@@H]1CCCN1C(=O)[C@@H]1CCCN1C(=O)[C@@H]1CCCN1C(=O)[C@H](C)NC(=O)CNC(=O)[C@H](CO)NC(=O)[C@H](CO)NC(=O)[C@@H]1CCCN1C(=O)CNC(=O)CNC(=O)[C@H](C)NC(=O)[C@H](CC(C)C)NC(=O)[C@H](CC(C)C)NC(=O)[C@H](Cc1c[nH]c2ccccc12)NC(=O)[C@H](CC(N)=O)NC(=O)[C@@H](NC(=O)[C@H](Cc1ccccc1)NC(=O)[C@H](CCC(=O)O)NC(=O)C(C)(C)NC(=O)[C@H](C)NC(=O)[C@H](C)NC(=O)[C@H](CCC(N)=O)NC(=O)[C@H](CCCCN)NC(=O)[C@H](CC(=O)O)NC(=O)[C@H](CC(C)C)NC(=O)[C@H](Cc1ccc(O)cc1)NC(=O)[C@@H](NC(=O)[C@H](CO)NC(=O)[C@H](Cc1ccc(O)cc1)NC(=O)[C@H](CC(=O)O)NC(=O)[C@H](CO)NC(=O)[C@@H](NC(=O)[C@H](Cc1ccccc1)NC(=O)[C@@H](NC(=O)CNC(=O)[C@H](CCC(=O)O)NC(=O)C(C)(C)C(=O)NCCN1CCOCC1=O)[C@@H](C)O)[C@@H](C)O)[C@@H](C)CC)C(C)C)C(N)=O)C(=O)O` [Compound 257], for which the results for the EC50 in experiment [1] (setting [3]) and in experiment [2] (setting [4]) were < 0.1 nM and 10 to 100 nM, respectively. The Emax in experiment [2] (Table 3A) amounted to 40%.

Regarding `CCCCCCCCCCCCCCCC(=O)N[C@@H](CCC(=O)NCCCC[C@H](NC(=O)[C@H](CO)NC(=O)[C@@H]1CCCN1C(=O)[C@@H]1CCCN1C(=O)[C@@H]1CCCN1C(=O)[C@H](C)NC(=O)CNC(=O)[C@H](CO)NC(=O)[C@H](CO)NC(=O)[C@@H]1CCCN1C(=O)CNC(=O)CNC(=O)[C@H](C)NC(=O)[C@H](CC(C)C)NC(=O)[C@H](CC(C)C)NC(=O)[C@H](Cc1c[nH]c2ccccc12)NC(=O)[C@H](CC(N)=O)NC(=O)[C@@H](NC(=O)[C@H](Cc1ccccc1)NC(=O)[C@H](CCC(=O)O)NC(=O)C(C)(C)NC(=O)[C@H](C)NC(=O)[C@H](C)NC(=O)[C@H](CCC(N)=O)NC(=O)[C@H](CCCCN)NC(=O)[C@H](CC(=O)O)NC(=O)[C@H](CC(C)C)NC(=O)[C@H](Cc1ccc(O)cc1)NC(=O)[C@@H](NC(=O)[C@H](CO)NC(=O)[C@H](Cc1ccc(O)cc1)NC(=O)[C@H](CC(=O)O)NC(=O)[C@H](CO)NC(=O)[C@@H](NC(=O)[C@H](Cc1ccccc1)NC(=O)[C@@H](NC(=O)CNC(=O)[C@H](CCC(=O)O)NC(=O)CSCC(=O)NCCN1C(=O)c2cccc3cccc(c23)C1=O)[C@@H](C)O)[C@@H](C)O)[C@@H](C)CC)C(C)C)C(N)=O)C(=O)O` [Compound 248], the Emax in experiment [1] (Table 3A) came to 80%; in experiment [2] (Table 3A) it was 105%. In addition, the EC50 lay in the range of 10 to 100 nM in experiment [1] (setting [3]) and 1 to 10 nM in experiment [2] (setting [4]).

In the case of `CCCCCCCCCCCCCCCC(=O)N[C@@H](CCC(=O)NCCCC[C@H](NC(=O)[C@H](CO)NC(=O)[C@@H]1CCCN1C(=O)[C@@H]1CCCN1C(=O)[C@@H]1CCCN1C(=O)[C@H](C)NC(=O)CNC(=O)[C@H](CO)NC(=O)[C@H](CO)NC(=O)[C@@H]1CCCN1C(=O)CNC(=O)CNC(=O)[C@H](C)NC(=O)[C@H](CC(C)C)NC(=O)[C@H](CC(C)C)NC(=O)[C@H](Cc1c[nH]c2ccccc12)NC(=O)[C@H](CC(N)=O)NC(=O)[C@@H](NC(=O)[C@H](Cc1ccccc1)NC(=O)[C@H](CCC(=O)O)NC(=O)C(C)(C)NC(=O)[C@H](C)NC(=O)[C@H](C)NC(=O)[C@H](CCC(N)=O)NC(=O)[C@H](CCCCN)NC(=O)[C@H](CC(=O)O)NC(=O)[C@H](CC(C)C)NC(=O)[C@H](Cc1ccc(O)cc1)NC(=O)[C@@H](NC(=O)[C@H](CO)NC(=O)[C@H](Cc1ccc(O)cc1)NC(=O)[C@H](CC(=O)O)NC(=O)[C@H](CO)NC(=O)[C@@H](NC(=O)[C@H](Cc1ccccc1)NC(=O)[C@@H](NC(=O)CNC(=O)[C@@H](Cc1nn[nH]n1)NC(=O)CSCC(=O)NCCN1CCCCC1=O)[C@@H](C)O)[C@@H](C)O)[C@@H](C)CC)C(C)C)C(N)=O)C(=O)O` [Compound 224] (X6-[X8]GTFTSDYSIYLDKQAA[Aib]EFVNWLLAGGPSSGAPPPSK([γGlu-Palmitoyl])-NH2), the Emax was 98% in experiment [1] (Table 3A) and 76% in experiment [2] (Table 3A). Besides, the EC50 in experiment [1] (setting [3]) fell in the range of 0.1 to 1 nM; in experiment [2] (setting [4]), 10 to 100 nM.

For `CCCCCCCCCCCCCCCC(=O)N[C@@H](CCC(=O)NCCCC[C@H](NC(=O)[C@H](CO)NC(=O)[C@@H]1CCCN1C(=O)[C@@H]1CCCN1C(=O)[C@@H]1CCCN1C(=O)[C@H](C)NC(=O)CNC(=O)[C@H](CO)NC(=O)[C@H](CO)NC(=O)[C@@H]1CCCN1C(=O)CNC(=O)CNC(=O)[C@H](C)NC(=O)[C@H](CC(C)C)NC(=O)[C@H](CC(C)C)NC(=O)[C@H](Cc1c[nH]c2ccccc12)NC(=O)[C@H](CC(N)=O)NC(=O)[C@@H](NC(=O)[C@H](Cc1ccccc1)NC(=O)[C@H](CCC(=O)O)NC(=O)C(C)(C)NC(=O)[C@H](C)NC(=O)[C@H](C)NC(=O)[C@H](CCC(N)=O)NC(=O)[C@H](CCCCN)NC(=O)[C@H](CC(=O)O)NC(=O)[C@H](CC(C)C)NC(=O)[C@H](Cc1ccc(O)cc1)NC(=O)[C@@H](NC(=O)[C@H](CO)NC(=O)[C@H](Cc1ccc(O)cc1)NC(=O)[C@H](CC(=O)O)NC(=O)[C@H](CO)NC(=O)[C@@H](NC(=O)[C@H](Cc1ccccc1)NC(=O)[C@@H](NC(=O)CNC(=O)[C@H](CCC(=O)O)NC(=O)CSCC(=O)NCCN1C(=O)CC(C)(C)CC1=O)[C@@H](C)O)[C@@H](C)O)[C@@H](C)CC)C(C)C)C(N)=O)C(=O)O` [Compound 82], the EC50 in experiment [1] (EC50 GLP-1R/nM, Table 3) was 1 to 10 nM; in experiment [1] (EC50 GLP-1R/nM, Table 3A), 1 to 10 nM; in experiment [2] (EC50 GIP-R/nM, Table 3), 1 to 10 nM; in experiment [2] (EC50 GIP-R/nM, Table 3A) it was 1 to 10 nM. The Emax amounted to 95% in experiment [1] (Table 3), 95% in experiment [1] (Table 3A), 82% in experiment [2] (Table 3) and 82% in experiment [2] (Table 3A).

In the case of `CCCCCCCCCCCCCCCC(=O)N[C@@H](CCC(=O)NCCCC[C@H](NC(=O)[C@H](CO)NC(=O)[C@@H]1CCCN1C(=O)[C@@H]1CCCN1C(=O)[C@@H]1CCCN1C(=O)[C@H](C)NC(=O)CNC(=O)[C@H](CO)NC(=O)[C@H](CO)NC(=O)[C@@H]1CCCN1C(=O)CNC(=O)CNC(=O)[C@H](C)NC(=O)[C@H](CC(C)C)NC(=O)[C@H](CC(C)C)NC(=O)[C@H](Cc1c[nH]c2ccccc12)NC(=O)[C@H](CC(N)=O)NC(=O)[C@@H](NC(=O)[C@H](Cc1ccccc1)NC(=O)[C@H](CCC(=O)O)NC(=O)C(C)(C)NC(=O)[C@H](C)NC(=O)[C@H](C)NC(=O)[C@H](CCC(N)=O)NC(=O)[C@H](CCCCN)NC(=O)[C@H](CC(=O)O)NC(=O)[C@H](CC(C)C)NC(=O)[C@H](Cc1ccc(O)cc1)NC(=O)[C@@H](NC(=O)[C@H](CO)NC(=O)[C@H](Cc1ccc(O)cc1)NC(=O)[C@H](CC(=O)O)NC(=O)[C@H](CO)NC(=O)[C@@H](NC(=O)[C@H](Cc1ccccc1)NC(=O)[C@@H](NC(=O)CNC(=O)[C@H](CCC(=O)O)NC(=O)CSCC(=O)NCCN1Cc2ccccc2CC1=O)[C@@H](C)O)[C@@H](C)O)[C@@H](C)CC)C(C)C)C(N)=O)C(=O)O` [Compound 270], the EC50 in experiment [1] (EC50 GLP-1R/nM, Table 3A) was 1 to 10 nM; in experiment [2] (EC50 GIP-R/nM, Table 3A), 1 to 10 nM. The Emax in experiment [1] (Table 3A) and in experiment [2] (Table 3A) was 90% each time.

With `CCCCCCCCCCCCCCCC(=O)N[C@@H](CCC(=O)NCCCC[C@H](NC(=O)[C@H](CO)NC(=O)[C@@H]1CCCN1C(=O)[C@@H]1CCCN1C(=O)[C@@H]1CCCN1C(=O)[C@H](C)NC(=O)CNC(=O)[C@H](CO)NC(=O)[C@H](CO)NC(=O)[C@@H]1CCCN1C(=O)CNC(=O)CNC(=O)[C@H](C)NC(=O)[C@H](CC(C)C)NC(=O)[C@H](CC(C)C)NC(=O)[C@H](Cc1c[nH]c2ccccc12)NC(=O)[C@H](CC(N)=O)NC(=O)[C@@H](NC(=O)[C@H](Cc1ccccc1)NC(=O)[C@H](CCC(=O)O)NC(=O)C(C)(C)NC(=O)[C@H](C)NC(=O)[C@H](C)NC(=O)[C@H](CCC(N)=O)NC(=O)[C@H](CCCCN)NC(=O)[C@H](CC(=O)O)NC(=O)[C@H](CC(C)C)NC(=O)[C@H](Cc1ccc(O)cc1)NC(=O)[C@@H](NC(=O)[C@H](CO)NC(=O)[C@H](Cc1ccc(O)cc1)NC(=O)[C@H](CC(=O)O)NC(=O)[C@H](CO)NC(=O)[C@@H](NC(=O)[C@H](Cc1ccccc1)NC(=O)[C@@H](NC(=O)CNC(=O)[C@H](CCC(=O)O)NC(=O)CSCC(=O)NCCN1C(=O)[C@@H](C)[C@H](C)C1=O)[C@@H](C)O)[C@@H](C)O)[C@@H](C)CC)C(C)C)C(N)=O)C(=O)O` (single isomer, unassigned) [Compound 63], the maximum response (Emax) in experiment [1] (Table 3) worked out at 91%; in experiment [1] (Table 3A), 91%; in experiment [2] (Table 3) it was 24%; in experiment [2] (Table 3A) it was 24%.

These data come from US20260176320A1, “MODULATORS OF G-PROTEIN COUPLED RECEPTORS” (priority 2018, published 2026).
